Where a name gives a salt, the structure may show the parent alone.
These compounds were tested against T1, human PAH with the R408W mutation (Homo sapiens, UniProt P00439, R408W) (assay: Cell Based Phenylalanine Flux Assay). Conditions: A375 cells expressing human R408W PAH; 24 hrs compound incubation; 13C-Tyrosine by LC-MS; average where tested multiple times; read-out: AC50.
T1 construct: expressed in transfected cells
T1 sequence (P00439 1-452 R408W): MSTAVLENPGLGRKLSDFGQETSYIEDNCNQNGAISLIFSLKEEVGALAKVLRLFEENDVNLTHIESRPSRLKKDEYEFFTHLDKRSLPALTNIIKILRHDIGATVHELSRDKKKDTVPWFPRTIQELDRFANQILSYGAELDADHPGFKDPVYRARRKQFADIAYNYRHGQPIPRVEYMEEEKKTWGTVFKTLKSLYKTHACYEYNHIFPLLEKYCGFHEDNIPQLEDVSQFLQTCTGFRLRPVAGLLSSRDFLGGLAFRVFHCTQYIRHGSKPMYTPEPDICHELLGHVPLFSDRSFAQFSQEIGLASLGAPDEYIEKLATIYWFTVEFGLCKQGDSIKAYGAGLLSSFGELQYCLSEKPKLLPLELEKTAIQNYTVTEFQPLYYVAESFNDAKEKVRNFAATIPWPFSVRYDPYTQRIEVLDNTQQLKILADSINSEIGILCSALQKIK

Row | SMILES | AC50 [nM]
1 | CC(C)(F)c1ncc(C(=O)N2CCc3[nH]cnc3[C@@H]2c2nc3ccccc3s2)s1 [Example 1464, (R)-(4-(benzo[d]thiazol-2-yl)-6,7-dihydro-1H-imidazo[4,5-c]pyridin-5(4H)-yl)(2-(2-fluoropropan-2-yl)thiazol-5-yl)methanone] | 1000 to 5000
2 | Cc1nc(-c2cnn(C(C)C)c2)oc1C(=O)N1CCc2[nH]cnc2[C@@H]1c1nc2ccccc2s1 [Example 1424, (R)-(4-(benzo[d]thiazol-2-yl)-6,7-dihydro-1H-imidazo[4,5-c]pyridin-5(4H)-yl)(2-(1-isopropyl-1H-pyrazol-4-yl)-4-methyloxazol-5-yl)methanone] | 1000 to 5000
3 | Cc1nc(-c2cnn(C(C)C)c2)oc1C(=O)N1CCc2[nH]cnc2[C@H]1c1nc2ccccc2s1 [Example 1423] | < 500
4 | CC(C)(C)c1ncoc1C(=O)N1CCc2[nH]cnc2[C@@H]1c1nc2c(F)cccc2s1 [Example 2182, (R)-(4-(tert-butyl)oxazol-5-yl)(4-(4-fluorobenzo[d]thiazol-2-yl)-6,7-dihydro-1H-imidazo[4,5-c]pyridin-5(4H)-yl)methanone] | 1000 to 5000
5 | CCn1ncnc1C(=O)N1CCc2[nH]cnc2[C@H]1c1nc2c(F)cccc2s1 [Example 1959] | < 500
6 | N#Cc1ccn2ncc(C(=O)N3CCc4[nH]cnc4[C@H]3c3nc4cc(F)ccc4s3)c2c1 [Example 1160, (S)-3-(4-(5-fluorobenzo[d]thiazol-2-yl)-4,5,6,7-tetrahydro-1H-imidazo[4,5-c]pyridine-5-carbonyl)pyrazolo[1,5-a]pyridine-5-carbonitrile] | 500 to 1000
7 | O=C(Cc1nccs1)N1CCc2[nH]cnc2[C@@H]1c1nc2cccc(Br)c2s1 [Example 1175, (R)-1-(4-(7-bromobenzo[d]thiazol-2-yl)-6,7-dihydro-1H-imidazo[4,5-c]pyridin-5(4H)-yl)-2-(thiazol-2-yl)ethanone] | 1000 to 5000
8 | c1ccc2sc([C@@H]3c4nc[nH]c4CCN3CCC3CC3)nc2c1 [Example 1276, (S)-2-(5-(2-cyclopropylethyl)-4,5,6,7-tetrahydro-1H-imidazo[4,5-c]pyridin-4-yl)benzo[d]thiazole] | < 500
9 | CC(C)(O)c1nc(Cl)c(C(=O)N2CCc3[nH]cnc3[C@H]2c2nc3c(F)cccc3s2)s1 [Example 2087, (S)-(4-chloro-2-(2-hydroxypropan-2-yl)thiazol-5-yl)(4-(4-fluorobenzo[d]thiazol-2-yl)-6,7-dihydro-1H-imidazo[4,5-c]pyridin-5(4H)-yl)methanone] | 1000 to 5000
10 | Cc1nc(-c2ccccc2)c(C(=O)N2CCc3[nH]cnc3[C@@H]2c2nc3ccccc3s2)o1 [Example 1519, (R)-(4-(benzo[d]thiazol-2-yl)-6,7-dihydro-1H-imidazo[4,5-c]pyridin-5(4H)-yl)(2-methyl-4-phenyloxazol-5-yl)methanone] | > 5000
11 | Cc1nc(C2CC2)oc1C(=O)N1CCc2[nH]cnc2[C@@H]1c1nc2c(F)cccc2s1 [Example 1528, (R)-(2-cyclopropyl-4-methyloxazol-5-yl)(4-(4-fluorobenzo[d]thiazol-2-yl)-6,7-dihydro-1H-imidazo[4,5-c]pyridin-5(4H)-yl)methanone] | 1000 to 5000
12 | Cc1ncoc1C(=O)N1CCc2[nH]cnc2[C@H]1c1nc2ccccc2s1 [Example 1161] | < 500
13 | O=C(c1nnc(-c2ccccc2)s1)N1CCc2[nH]cnc2[C@H]1c1nc2ccccc2s1 [Example 1419] | < 500
14 | O=C(CCc1nccs1)N1CCc2[nH]cnc2[C@H]1c1nc2ccc(F)cc2s1 [Example 1029, (S)-1-(4-(6-fluorobenzo[d]thiazol-2-yl)-6,7-dihydro-1H-imidazo[4,5-c]pyridin-5(4H)-yl)-3-(thiazol-2-yl)propan-1-one] | 500 to 1000
15 | Cc1ccc2sc([C@@H]3c4nc[nH]c4CCN3C(=O)c3cnco3)nc2c1 [Example 2173, (S)-(4-(5-methylbenzo[d]thiazol-2-yl)-6,7-dihydro-1H-imidazo[4,5-c]pyridin-5(4H)-yl)(oxazol-5-yl)methanone] | 500 to 1000
16 | CC(=O)Cn1cc(C(=O)N2CCc3[nH]cnc3[C@@H]2c2nc3c(F)cccc3s2)c(Cl)n1 [Example 1992, (R)-1-(3-chloro-4-(4-(4-fluorobenzo[d]thiazol-2-yl)-4,5,6,7-tetrahydro-1H-imidazo[4,5-c]pyridine-5-carbonyl)-1H-pyrazol-1-yl)propan-2-one] | > 5000
17 | O=C(c1ccnn1CC(F)(F)F)N1CCc2[nH]cnc2[C@H]1c1nc2c(F)cccc2s1 [Example 1737, (S)-(4-(4-fluorobenzo[d]thiazol-2-yl)-6,7-dihydro-1H-imidazo[4,5-c]pyridin-5(4H)-yl)(1-(2,2,2-trifluoroethyl)-1H-pyrazol-5-yl)methanone] | < 500
18 | O=C(c1ncc(Cl)s1)N1CCc2[nH]cnc2[C@H]1c1nc2c(F)cccc2s1 [Example 1219] | < 500
19 | CC(C)(C)n1ncc(C(=O)N2CCc3[nH]cnc3[C@H]2c2nc3c(F)cccc3s2)c1Cl [Example 1931] | 500 to 1000
20 | O=C(c1oc(NC2CC2)nc1C(F)(F)F)N1CCc2[nH]cnc2[C@@H]1c1nc2c(F)cccc2s1 [Example 1596, (R)-(2-(cyclopropylamino)-4-(trifluoromethyl)oxazol-5-yl)(4-(4-fluorobenzo[d]thiazol-2-yl)-6,7-dihydro-1H-imidazo[4,5-c]pyridin-5(4H)-yl)methanone] | < 500
21 | O=C(CCC1CC1)N1CCc2[nH]cnc2[C@H]1c1nc2ccccc2s1 [Example 1021] | < 500
22 | Cn1cc(-c2ncc(C(=O)N3CCc4[nH]cnc4[C@H]3c3nc4ccccc4s3)s2)cn1 [Example 1229] | < 500
23 | Cc1cnc(CC(=O)N2CCc3[nH]cnc3[C@@H]2c2nc3ccccc3s2)s1 [Example 1458, (R)-1-(4-(benzo[d]thiazol-2-yl)-6,7-dihydro-1H-imidazo[4,5-c]pyridin-5(4H)-yl)-2-(5-methylthiazol-2-yl)ethanone] | 1000 to 5000
24 | O=C(c1oc(C2(O)CC2)nc1C(F)F)N1CCc2[nH]cnc2[C@@H]1c1nc2ccccc2s1 [Example 2056, (R)-(4-(benzo[d]thiazol-2-yl)-6,7-dihydro-1H-imidazo[4,5-c]pyridin-5(4H)-yl)(4-(difluoromethyl)-2-(1-hydroxycyclopropyl)oxazol-5-yl)methanone] | 1000 to 5000
25 | CC(C)(O)c1nc(C(F)(F)F)c(C(=O)N2CCc3[nH]cnc3[C@H]2c2nc3ccccc3s2)o1 [Example 1553] | < 500
26 | Cc1ncoc1C(=O)N1CC2(CC2)c2[nH]cnc2[C@@H]1c1nc2ccccc2s1 [Example 1578, (R)-(4′-(benzo[d]thiazol-2-yl)spiro[cyclopropane-1,7′-imidazo[4,5-c]pyridin]-5′(1′H,4′H,6′H)-yl)(4-methyloxazol-5-yl)methanone] | > 5000
27 | C[C@@H](O)c1nc(C(F)F)c(C(=O)N2CCc3[nH]cnc3[C@H]2c2nc3ccccc3s2)o1 [Example 2091] | < 500

Same assay, conditions: A375 cells expressing human R408W PAH; 24 hrs with compound; 13C-Tyrosine by LC-MS; average where tested multiple times; read-out: AC50

Row | SMILES | AC50 [nM]
28 | COc1ccn2ncc(C(=O)N3CCc4[nH]cnc4[C@H]3c3nc4ccccc4[nH]3)c2c1 [(S)-(4-(1H-benzo[d]imidazol-2-yl)-6,7-dihydro-1H-imidazo[4,5-c]pyridin-5(4H)-yl)(5-methoxypyrazolo[1,5-a]pyridin-3-yl)methanone] | 1000 to 5000
29 | Cc1nc(C(C)(C)O)oc1C(=O)N1CC(C)c2[nH]cnc2C1c1nc2c(F)cccc2s1 (stereo not drawn) [listing 1 of 2 here] | > 5000
30 | O=C(CCc1nccs1)N1CCc2[nH]cnc2C1c1nc2cc(F)ccc2s1 (stereo not drawn) | > 5000
31 | O=C(c1cnn2cc(CCc3ccccc3)ccc12)N1CCc2[nH]cnc2C1c1nc2ccccc2s1 (stereo not drawn) | 1000 to 5000
32 | O=C(Cc1cncs1)N1CCc2[nH]cnc2C1c1nc2ccccc2s1 (stereo not drawn) | 1000 to 5000
33 | O=C(CCc1nnc(Br)s1)N1CCc2[nH]cnc2[C@H]1c1nc2ccccc2[nH]1 [(S)-1-(4-(1H-benzo[d]imidazol-2-yl)-1,4,6,7-tetrahydro-5H-imidazo[4,5-c]pyridin-5-yl)-3-(5-bromo-1,3,4-thiadiazol-2-yl)propan-1-one] | 1000 to 5000
34 | CN(C)CCc1nnc(C(=O)N2CCc3[nH]cnc3C2c2nc3ccccc3s2)o1 (stereo not drawn) | 1000 to 5000
35 | CC(C)(O)c1cc(C(=O)N2CCc3[nH]cnc3C2c2nc3c(F)cccc3s2)no1 (stereo not drawn) | > 5000
36 | Cc1nc(NC2CC2)oc1C(=O)N1CCCc2[nH]cnc2C1c1nc2ccccc2s1 (stereo not drawn) | > 5000
37 | Cc1nc(C(C)(C)O)oc1C(=O)N1CC(C)c2[nH]cnc2C1c1nc2c(F)cccc2s1 (stereo not drawn) [listing 2 of 2 here] | > 5000
38 | O=C(Cc1cnco1)N1CCc2[nH]cnc2C1c1nc2ccccc2s1 (stereo not drawn) | 1000 to 5000
39 | Cc1nc(N2CCOCC2)oc1C(=O)N1CCc2[nH]cnc2C1c1nc2c(F)cccc2s1 (stereo not drawn) | 1000 to 5000
40 | Cn1nc(CC#N)nc1C(=O)N1CCc2[nH]cnc2[C@H]1c1nc2ccccc2s1 (single isomer, unassigned) | 1000 to 5000
41 | Cn1cc(-c2ncc(C(=O)N3CCc4[nH]cnc4[C@H]3c3nc4ccccc4[nH]3)o2)cn1 [(S)-(4-(1H-benzo[d]imidazol-2-yl)-6,7-dihydro-1H-imidazo[4,5-c]pyridin-5(4H)-yl)(2-(1-methyl-1H-pyrazol-4-yl)oxazol-5-yl)methanone hydrochloride] | > 5000
42 | CC(C)(C)CCC(=O)N1CCc2[nH]cnc2C1c1nc2ccc(Cl)cc2[nH]1 (stereo not drawn) | 1000 to 5000
43 | O=C(c1cnn(CC(F)(F)F)c1)N1CCc2[nH]cnc2C1c1nc2ccccc2s1 (stereo not drawn) | 1000 to 5000
44 | O=C(c1ccc2ncsc2c1)N1CCc2[nH]cnc2C1c1nc2ccccc2[nH]1 (stereo not drawn) | 1000 to 5000
45 | Cc1noc(C(=O)N2CCc3[nH]cnc3C2c2nc3ccccc3s2)n1 (stereo not drawn) | 1000 to 5000

— patent US20250171438A1 (Agios Pharmaceuticals, Inc., priority 2022, published 2025)
